Experimental data as given in publication PMC5349880, “P-glycoprotein-mediated chemoresistance is reversed by carbonic anhydrase XII inhibitors” (Oncotarget, 2016).

Experiments:
[1] = target: human CA IX; set-up: method as in PMID 21851094, PMID 19827837, PMID 21314129; conditions: recombinant CA, errors ± 5%, three determinations; cited from earlier work
[2] = target: human CA II; set-up: method as in PMID 21851094, PMID 19827837, PMID 21314129; conditions: recombinant CA, errors ± 5%, three determinations; cited from earlier work
[3] = target: human CA XII; set-up: method as in PMID 21851094, PMID 19827837, PMID 21314129; conditions: recombinant CA, errors ± 5%, three determinations; cited from earlier work
[4] = target: human CA I; set-up: method as in PMID 21851094, PMID 19827837, PMID 21314129; conditions: recombinant CA, errors ± 5%, three determinations; cited from earlier work
[5] = tested on: human CA XII; assay: CA inhibition, stopped-flow CO2 hydration; assay type: biochemical; conditions: ratio of Kis
Procedure: Saturated CO2 solutions in water at 20°C were used as substrate, while the recombinant CA protein was prepared in Hepes buffer (10 mM, pH 7.5) with added NaClO4 (0.1 M) to maintain a constant the ionic strength. […] The inhibition constants were obtained by nonlinear least-squares methods using PRISM 3. The curve fitting algorithm allowed us to obtain the IC50 values, from which Ki values were calculated by using the Cheng-Prusoff equation.

Compound | Ki [1] [nM] | Ki [2] [nM] | Ki [3] [nM] | Ki [4] [nM] | CAXII Isozyme Selectivity CA I/XII [5] | CAXII Isozyme Selectivity CA IX/XII [5] | CAXII Isozyme Selectivity CAII/ XII [5]
CCC(=O)OC1O[C@H](COS(N)(=O)=O)[C@@H](OC(=O)CC)[C@H](OC(=O)CC)[C@H]1OC(=O)CC (stereo partly drawn) [Compound 3] | 77 |  |  |  |  |  | 
NS(=O)(=O)c1ccc(CNS(=O)(=O)[C@@H]2O[C@H](CO)[C@@H](O)[C@H](O)[C@H]2O)cc1 [Compound 5] |  | 9.1 | 8.3 | 102 |  |  | 
NS(=O)(=O)c1ccc(CNS(=O)(=O)[C@@H]2O[C@H](CO)[C@H](O)[C@H](O)[C@H]2O)cc1 [Compound 6] |  | 7.8 | 8.7 | 87 |  |  | 
NS(=O)(=O)c1ccc(CNS(=O)(=O)[C@@H]2O[C@H](CO)[C@@H](O[C@H]3O[C@H](CO)[C@H](O)[C@H](O)[C@H]3O)[C@H](O)[C@H]2O)cc1 [Compound 7] | 106 | 5 | 8.9 | 107 | 12.0 | 11.9 | 0.6
NS(=O)(=O)c1ccc(CNS(=O)(=O)[C@@H]2O[C@H](CO)[C@@H](O[C@H]3O[C@H](CO)[C@@H](O)[C@H](O)[C@H]3O)[C@H](O)[C@H]2O)cc1 [Compound 8] | 98 | 4.8 | 8.2 | 101 | 12.3 | 12.0 | 0.6
